From ChEMBL document CHEMBL1145293, “Synthesis and SAR of GlyT1 inhibitors derived from a series of N-((4-(morpholine-4-carbonyl)-1-(propylsulfonyl)piperidin-4-yl)methyl)benzamides” (Bioorg Med Chem Lett, 2006)
In brackets after ≈: the same amount, converted by molar mass.

Key:
Cytochrome P450 3A4 = Cytochrome P450 3A4 (Homo sapiens, UniProt P08684); assay: Inhibition of CYP3A4; format: ADME
[1] = target: T1, Sodium- and chloride-dependent glycine transporter 1 (Mus musculus, UniProt P28571); assay: Inhibition of mouse GlyT1
T1 sequence (P28571 whole entry): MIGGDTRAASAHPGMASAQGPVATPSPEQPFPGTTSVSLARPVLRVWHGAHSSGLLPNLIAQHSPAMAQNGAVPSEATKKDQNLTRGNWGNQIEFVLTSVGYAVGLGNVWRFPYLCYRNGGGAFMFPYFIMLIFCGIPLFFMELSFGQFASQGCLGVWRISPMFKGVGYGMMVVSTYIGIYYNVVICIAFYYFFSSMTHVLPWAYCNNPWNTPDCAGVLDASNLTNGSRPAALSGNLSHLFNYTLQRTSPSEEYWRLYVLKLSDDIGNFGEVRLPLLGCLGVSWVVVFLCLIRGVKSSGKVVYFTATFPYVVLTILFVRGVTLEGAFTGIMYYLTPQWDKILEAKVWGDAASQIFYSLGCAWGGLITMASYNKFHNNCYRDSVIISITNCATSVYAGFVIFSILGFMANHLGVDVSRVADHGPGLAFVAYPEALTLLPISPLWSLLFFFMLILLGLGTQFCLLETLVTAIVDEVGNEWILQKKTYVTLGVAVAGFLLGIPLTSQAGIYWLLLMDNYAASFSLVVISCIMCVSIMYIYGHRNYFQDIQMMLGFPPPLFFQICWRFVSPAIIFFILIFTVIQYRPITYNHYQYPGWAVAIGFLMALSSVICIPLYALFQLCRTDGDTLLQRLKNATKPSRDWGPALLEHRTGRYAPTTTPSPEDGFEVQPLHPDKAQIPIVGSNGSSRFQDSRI

[2] = Aqueous solubility of the compound; format: physicochemical
Cytochrome P450 2C9 = Cytochrome P450 2C9 (Homo sapiens, UniProt P11712); assay: Inhibition of CYP2C9; format: ADME
Cytochrome P450 2C9, sequence (P11712 whole entry): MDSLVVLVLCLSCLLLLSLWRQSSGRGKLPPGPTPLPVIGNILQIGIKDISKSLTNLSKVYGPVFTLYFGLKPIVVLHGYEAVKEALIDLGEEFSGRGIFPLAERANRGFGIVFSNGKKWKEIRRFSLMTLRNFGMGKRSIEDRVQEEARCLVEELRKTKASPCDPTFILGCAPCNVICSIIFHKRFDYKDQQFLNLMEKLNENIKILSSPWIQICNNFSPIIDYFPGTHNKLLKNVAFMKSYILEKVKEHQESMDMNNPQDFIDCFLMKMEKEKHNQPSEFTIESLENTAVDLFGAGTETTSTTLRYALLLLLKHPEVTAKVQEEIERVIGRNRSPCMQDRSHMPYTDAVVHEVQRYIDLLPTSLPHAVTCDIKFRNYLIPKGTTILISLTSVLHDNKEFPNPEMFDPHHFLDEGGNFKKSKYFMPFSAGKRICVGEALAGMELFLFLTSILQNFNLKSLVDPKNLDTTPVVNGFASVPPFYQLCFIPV

Cytochrome P450 3A4, sequence (P08684 whole entry): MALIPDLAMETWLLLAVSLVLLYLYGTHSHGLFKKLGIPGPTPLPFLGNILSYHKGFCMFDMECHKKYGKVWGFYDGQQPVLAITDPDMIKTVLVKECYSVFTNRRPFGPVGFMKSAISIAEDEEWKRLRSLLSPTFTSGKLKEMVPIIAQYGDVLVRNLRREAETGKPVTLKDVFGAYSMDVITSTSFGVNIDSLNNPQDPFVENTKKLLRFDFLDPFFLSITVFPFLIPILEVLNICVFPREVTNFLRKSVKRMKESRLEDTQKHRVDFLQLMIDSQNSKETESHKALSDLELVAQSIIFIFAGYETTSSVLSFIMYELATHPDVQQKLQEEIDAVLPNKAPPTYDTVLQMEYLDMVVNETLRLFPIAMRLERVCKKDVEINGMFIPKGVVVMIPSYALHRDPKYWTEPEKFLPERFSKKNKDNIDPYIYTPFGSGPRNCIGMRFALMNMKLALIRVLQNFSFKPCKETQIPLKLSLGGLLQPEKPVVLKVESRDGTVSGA

Row | Structure (SMILES) | Activity (Cytochrome P450 3A4) | IC50 [1] [nM] | solubility [2] [µg/mL] | Activity (Cytochrome P450 2C9)
1 | CCCS(=O)(=O)N1CCC(CNC(=O)c2ccccc2Cl)(C(=O)N2CCOCC2)CC1 | Not Active | 95.3 | 10000 (≈ 21.2 mM) | Not Active
2 | CCCS(=O)(=O)N1CCC(CNC(=O)c2c(F)ccc(Cl)c2F)(C(=O)N2CCOCC2)CC1 | Not Active | 42.8 | 10000 (≈ 19.7 mM) | Not Active
3 | CCCS(=O)(=O)N1CCC(CNC(=O)c2cc(F)c(Cl)cc2Cl)(C(=O)N2CCOCC2)CC1 | Not Active | 19.4 | 10000 (≈ 19.1 mM) | Not Active

Now from value to compound:

Row | Activity (Cytochrome P450 3A4) | IC50 [1] [nM] | solubility [2] [µg/mL] | Activity (Cytochrome P450 2C9) | Structure (SMILES)
4 | Not Active | 28.5 | 10000 (≈ 20.4 mM) | Not Active | CCCS(=O)(=O)N1CCC(CNC(=O)c2ccc(F)cc2Cl)(C(=O)N2CCOCC2)CC1
5 | Not Active | 57.3 | 10000 (≈ 20.4 mM) | Not Active | CCCS(=O)(=O)N1CCC(CNC(=O)c2c(F)cccc2Cl)(C(=O)N2CCOCC2)CC1
6 | Not Active | 7.6 | 18000 (≈ 35.5 mM) | Not Active | CCCS(=O)(=O)N1CCC(CNC(=O)c2ccc(Cl)cc2Cl)(C(=O)N2CCOCC2)CC1
